In EP0436598B1, “CELL SORTING TECHNIQUE AND APPLICATIONS THEREOF” (CETUS ONCOLOGY CORPORATION, priority 1988, dated 1990):

How the values were obtained:
3G8 cells = assay: MTT cell growth and viability assay after fluorescent dye labeling; assay type: cell-based, murine; details: hydroethidine at 10 µg/ml, Figure 2
Description: (§1) The effect of fluorescent dyes on cell viability can be measured using techniques well known to those skilled in the art. A most useful technique is described by Mosmann, T., J. of Immunol. Methods, 65:55 (1983) which measures cell viability as a function of cell number. Thus, the effect of fluorescent dyes on both cell viability and cell number can be measured simultaneously. The assay is based on the conversion of colorless tetrazolium salts by mitochrondrial dehydrogenase enzymes to a detectable colored product. A favored tetrazolium salt is MTT, or (3-(4,5- dimethylthylthiazol-2-yl)-2,5- diphenyl tetrazolium bromide).
(§2) Cell growth and viability was determined using the MTT assay as described by Mosmann, T., above. […] Each of the above cell lines was tested, and the results are shown in Figures 1, and 2 for 520C9 and 3G8 respectively. For both cell lines the assay was linear at least up to 10⁴ cells/well.
(§3) Next, the same cell lines were labeled in the presence or absence of either rhodamine 123 or hydroethidine, and subsequently cultured for three days during which cell number was measured. Cells were labeled in the presence of 0.5 µg/ml rhodamine 123 plus 10 µM verapamil, or 5 or 10 µg/ml hydroethidine. […]

520C9 cells = assay: as above; assay type: cell-based, murine; details: labeled 20 minutes with hydroethidine 10 µg/ml at room temperature, washed, cultured three days in dye free medium; Figure 1
Description: as §1, §2, §3

SMILES: CCN1c2cc(N)ccc2-c2ccc(N)cc2C1c1ccccc1 (stereo not drawn) [hydroethidine]
- inhibition of 3G8 growth (3G8 cells; labeled 20 minutes, cultured three days): does inhibit
- start of inhibition of 3G8 growth (3G8 cells): about 24 hours
- growth rate and cell numbers of 520C9 cells compared to cells grown in medium lacking the compounds (520C9 cells): virtually identical
